Results published in ChEMBL document CHEMBL5625167, “In vitro bioevaluation and docking study of dihydrosphingosine and ethambutol analogues against sensitive and multi-drug resistant Mycobacterium tuberculosis” (Eur J Med Chem, 2023).
Converted amounts (≈) assume the structure as drawn. “And” between values parts separate entries of the source, which are not always exact repeats. Equal entries are not always repeated.

Assays:
[1] = test system: Mycobacterium tuberculosis; assay: (§1) Antimycobacterial activity against isoniazid, rifampicin, ethambutol and pyrazinamide sensitive Mycobacterium tuberculosis H37Rv ATCC 25618 assessed as inhibition of bacterial growth incubated for 7 days by resazurin dye based colorimetric method analysis; assay type: functional; conditions: H37Rv ATCC 25618, 168 h, time 7 day
[2] = test system: Mycobacterium tuberculosis; assay: as §1, with “Potency index, ratio of ethambutol MIC to test compound MIC for antimycobacterial” for “Antimycobacterial”; assay type: functional; conditions: time 7 day
[3] = Cytotoxicity against African green monkey Vero cells assessed as reduction in cell population incubated for 48 hrs by MTT assay; assay type: toxicity, cell-based; conditions: chlorocebus sabaeus
[4] = Cytotoxicity against mouse J774.A1 cells assessed as reduction in cell population incubated for 48 hrs by MTT assay; assay type: toxicity, cell-based
[5] = test system: Mycolicibacterium smegmatis; assay: Antimycobacterial activity against Mycobacterium smegmatis ATCC607 incubated for 24 hrs by resazurin dye based broth microdilution method; assay type: functional
Staphylococcus aureus = assay: Antibacterial activity against Staphylococcus aureus ATCC 25923 incubated for 18 hrs by resazurin dye based broth microdilution method; assay type: functional
Klebsiella pneumoniae = assay: Antibacterial activity against Klebsiella pneumoniae ATCC 13883 incubated for 18 hrs by resazurin dye based broth microdilution method; assay type: functional
[6] = Cytotoxicity against human HepG2 cells assessed as reduction in cell population incubated for 48 hrs by MTT assay; assay type: toxicity, cell-based
[7] = test system: Mycobacterium tuberculosis; assay: Antimycobacterial activity against Mycobacterium tuberculosis H37Rv ATCC 25618 assessed as fractional inhibitory concentration incubated for 7 days in presence of 2-aminoheptadecan-1-ol by resazurin dye based two-dimensional micro dilution checkerboard assay; assay type: functional; conditions: time 7 day
[8] = test system: Mycobacterium tuberculosis; assay: Antimycobacterial activity against Mycobacterium tuberculosis H37Rv ATCC 25618 incubated for 7 days by resazurin dye based two-dimensional micro dilution checkerboard assay in presence of 1-(benzyloxy)heptadecan-2-amine; assay type: functional; conditions: time 7 day
[9] = test system: Mycobacterium tuberculosis; assay: Antimycobacterial activity against Mycobacterium tuberculosis H37Rv ATCC 25618 incubated for 7 days by resazurin dye based two-dimensional micro dilution checkerboard assay in presence of 1-((3,4,5-trimethoxybenzyl)oxy)heptadecan-2-amine; assay type: functional; conditions: time 7 day

Which MIC [1] does the source give for CCCCCCCCCCCCCCCC(CN=[N+]=[N-])NC(=O)OC(C)(C)C (centres undefined) here?
Its MIC is over 64 µM.

And the Ratio [2]?
Its Ratio is under 5.6.

And the CC50 at 48 h [3]?
The CC50 at 48 h was 63.8 µM.

What about the CC50 at 48 h [4] of the same compound?
Its CC50 at 48 h is 104 µM.

What about the MIC [5] of the same compound?
The MIC was over 512 µM.

What about the MIC (Staphylococcus aureus) of the same compound?
The MIC was over 512 µM.

What about the MIC (Klebsiella pneumoniae) of the same compound?
The MIC was over 512 µM.

What does the source list for CCCCCCCCCCCCCCCCCCCC(CO)N(CC)CC (centres undefined)?
MIC [1]: > 64 µM; Ratio [2]: <5.6; CC50 at 48 h [3]: 117 µM; CC50 at 48 h [4]: 102 µM; MIC [5]: > 512 µM; MIC (Staphylococcus aureus): > 512 µM; MIC (Klebsiella pneumoniae): > 512 µM

Which results are given for CCCCCCCCCCCCCCCC(CNCCCC)NC(=O)OC(C)(C)C (centres undefined)?
MIC [1]: 8 µM (≈ 3.41 µg/mL); Ratio [2]: 45; CC50 at 48 h [3]: 20.3 µM; CC50 at 48 h [4]: 21.2 µM; CC50 at 48 h [6]: 136 µM; MIC [5]: 32 µM (≈ 13.7 µg/mL); MIC (Staphylococcus aureus): 16 µM (≈ 6.83 µg/mL); MIC (Klebsiella pneumoniae): > 512 µM

What does the source list for CCCCCCCCCCCCCCCC(CO)NCCCC (centres undefined)?
MIC [1]: 64 µM (≈ 21 µg/mL); Ratio [2]: 6; CC50 at 48 h [3]: 73.4 µM; CC50 at 48 h [4]: 23.7 µM

For CCCCCCCCCCCCCCCC(CO)NCCCCCC (centres undefined), which MIC [1] is on record?
Its MIC is 64 µM (≈ 22.8 µg/mL).

And the Ratio [2]?
Its Ratio is 6.

And the CC50 at 48 h [3]?
The CC50 at 48 h was 113 µM.

What about the CC50 at 48 h [4] of the same compound?
Its CC50 at 48 h is 23.8 µM.

And the MIC [5]?
The MIC was 256 µM (≈ 91 µg/mL).

What about the MIC (Staphylococcus aureus) of the same compound?
The MIC was 128 µM (≈ 45.5 µg/mL).

What about the MIC (Klebsiella pneumoniae) of the same compound?
The MIC was over 512 µM.

With CCCCCCCCCCCCCCCC(COCc1ccccc1)NCC (centres undefined) as the compound, how does the MIC [1] read?
The MIC was 16 µM (≈ 6.23 µg/mL).

What about the Ratio [2] of the same compound?
The Ratio was 23.

What about the CC50 at 48 h [3] of the same compound?
Its CC50 at 48 h is 26 µM.

And the CC50 at 48 h [4]?
Its CC50 at 48 h is 21.6 µM.

What about the CC50 at 48 h [6] of the same compound?
The CC50 at 48 h was 237 µM.

And the MIC [5]?
The MIC was 32 µM (≈ 12.5 µg/mL).

And the MIC (Staphylococcus aureus)?
The MIC was 16 µM (≈ 6.23 µg/mL).

What about the MIC (Klebsiella pneumoniae) of the same compound?
Its MIC is over 512 µM.

What does the source list for CCCCCCCCCCCCCCCCCCCC(CNCC)NC(=O)OC(C)(C)C (centres undefined)?
MIC [1]: 4 µM (≈ 1.82 µg/mL); Ratio [2]: 90; CC50 at 48 h [3]: 33.7 µM; CC50 at 48 h [4]: 4.7 µM; CC50 at 48 h [6]: 158 µM; MIC [5]: 16 µM (≈ 7.28 µg/mL); MIC (Staphylococcus aureus): 256 µM (≈ 116 µg/mL); MIC (Klebsiella pneumoniae): > 512 µM

Which MIC [1] does the source give for CCCCCCCCCCCCCCCC(CN)NC(=O)OC(C)(C)C (centres undefined) here?
Its MIC is 17.6 µM (≈ 6.52 µg/mL).

What about the Ratio [2] of the same compound?
The Ratio was 20.

And the CC50 at 48 h [3]?
The CC50 at 48 h was 21.9 µM.

What about the CC50 at 48 h [4] of the same compound?
Its CC50 at 48 h is 5.18 µM.

With CCCCCCCCCCCCCCCCCC(CO)N(CC)CC (centres undefined) as the compound, how does the MIC [1] read?
The MIC was over 64 µM.

What about the Ratio [2] of the same compound?
Its Ratio is under 5.6.

And the CC50 at 48 h [3]?
The CC50 at 48 h was 85.5 µM.

And the CC50 at 48 h [4]?
Its CC50 at 48 h is 49.5 µM.

And the MIC [5]?
The MIC was over 512 µM.

And the MIC (Staphylococcus aureus)?
Its MIC is over 512 µM.

What about the MIC (Klebsiella pneumoniae) of the same compound?
The MIC was over 512 µM.

Which MIC [1] does the source give for CCCCCCCCCCCCCCCC(CO)N(CCCC)CCCC (centres undefined) here?
Its MIC is 8 µM (≈ 3.07 µg/mL).

And the Ratio [2]?
Its Ratio is 45.

And the CC50 at 48 h [3]?
The CC50 at 48 h was 47.2 µM.

And the CC50 at 48 h [4]?
The CC50 at 48 h was 22.4 µM.

And the CC50 at 48 h [6]?
Its CC50 at 48 h is 82.5 µM.

What about the MIC [5] of the same compound?
Its MIC is over 512 µM.

Which results are given for CCCCCCCCCCCCCCCC(CO)NCCCCCCCCCC (centres undefined)?
MIC [1]: 64 µM (≈ 26.4 µg/mL); Ratio [2]: 6; CC50 at 48 h [3]: 104 µM; CC50 at 48 h [4]: 55.3 µM; MIC [5]: 128 µM (≈ 52.7 µg/mL); MIC (Staphylococcus aureus): 512 µM (≈ 211 µg/mL); MIC (Klebsiella pneumoniae): > 512 µM

With CCCCc1ccc(CCCCCC(N)CO)cc1 (centres undefined) as the compound, how does the MIC [1] read?
The MIC was 64 µM (≈ 16.9 µg/mL).

And the Ratio [2]?
Its Ratio is 6.

What about the CC50 at 48 h [3] of the same compound?
Its CC50 at 48 h is 27.8 µM.

What about the CC50 at 48 h [4] of the same compound?
The CC50 at 48 h was 10.7 µM.

For CCCCc1ccc(CCCCCCCCCC(CO)NC(=O)OC(C)(C)C)cc1 (centres undefined), which MIC [1] is on record?
Its MIC is 32 µM (≈ 13.4 µg/mL).

And the Ratio [2]?
Its Ratio is 11.

What about the CC50 at 48 h [3] of the same compound?
The CC50 at 48 h was 31 µM.

And the CC50 at 48 h [4]?
Its CC50 at 48 h is 15.8 µM.

Which results are given for CCCCCCCCCCCCCCCC(CNCC)NC(=O)OC(C)(C)C (centres undefined)?
MIC [1]: 16 µM (≈ 6.38 µg/mL); Ratio [2]: 23; CC50 at 48 h [3]: 17.7 µM; CC50 at 48 h [4]: 19.8 µM; CC50 at 48 h [6]: 107 µM; MIC [5]: 32 µM (≈ 12.8 µg/mL); MIC (Staphylococcus aureus): ≤ 4 µM; MIC (Klebsiella pneumoniae): 512 µM (≈ 204 µg/mL)

For CCCCCCCCCCCCCCCCCCCC(CN)NC(=O)OC(C)(C)C (centres undefined), which MIC [1] is on record?
The MIC was 32 µM (≈ 13.7 µg/mL).

And the Ratio [2]?
Its Ratio is 11.

And the CC50 at 48 h [3]?
Its CC50 at 48 h is 51.4 µM.

What about the CC50 at 48 h [4] of the same compound?
Its CC50 at 48 h is 36 µM.

With NCC[C@H](O)C(=O)N[C@@H]1C[C@H](N)[C@@H](O[C@H]2O[C@H](CN)[C@@H](O)[C@H](O)[C@H]2O)[C@H](O)[C@H]1O[C@H]1O[C@H](CO)[C@@H](O)[C@H](N)[C@H]1O [AMIKACIN] as the compound, how does the MIC [1] read?
Its MIC is 0.1 µM and 0.08 µg/mL.

And the MIC [5]?
The MIC was 1 µM (≈ 0.586 µg/mL).

What about the FIC [7] of the same compound?
The FIC was 0.063.

What about the FIC [8] of the same compound?
The FIC was 0.25.

And the FIC [9]?
Its FIC is 0.5.

Which MIC [1] does the source give for NNC(=O)c1ccncc1 [ISONIAZID] here?
Its MIC is 0.91 µM and 0.13 µg/mL.

And the FIC [7]?
Its FIC is 0.5.

What about the FIC [8] of the same compound?
Its FIC is 0.5.

And the FIC [9]?
The FIC was 0.5.

Which MIC [1] does the source give for CCCCCCCCCCCCCCCCCC(CO)NCCCC (centres undefined) here?
The MIC was 32 µM (≈ 11.4 µg/mL).

What about the Ratio [2] of the same compound?
The Ratio was 11.

And the CC50 at 48 h [3]?
Its CC50 at 48 h is 148 µM.

What about the CC50 at 48 h [4] of the same compound?
Its CC50 at 48 h is 31.1 µM.

What about the MIC [5] of the same compound?
The MIC was 512 µM (≈ 182 µg/mL).

And the MIC (Staphylococcus aureus)?
The MIC was 512 µM (≈ 182 µg/mL).

What about the MIC (Klebsiella pneumoniae) of the same compound?
The MIC was over 512 µM.

With CCCCc1ccc(CCCCCC(CO)NC(=O)OC(C)(C)C)cc1 (centres undefined) as the compound, how does the MIC [1] read?
Its MIC is 64 µM (≈ 23.3 µg/mL).

What about the Ratio [2] of the same compound?
The Ratio was 6.

And the CC50 at 48 h [3]?
The CC50 at 48 h was 51.5 µM.

And the CC50 at 48 h [4]?
The CC50 at 48 h was 14.2 µM.

Which results are given for CCCCCCCCCCCCCCCCCCCC(COCc1ccccc1)NCC (centres undefined)?
MIC [1]: 16 µM (≈ 7.13 µg/mL); Ratio [2]: 23; CC50 at 48 h [3]: 67.8 µM; CC50 at 48 h [4]: 52.3 µM; CC50 at 48 h [6]: 95.1 µM; MIC [5]: 128 µM (≈ 57.1 µg/mL); MIC (Staphylococcus aureus): > 512 µM; MIC (Klebsiella pneumoniae): > 512 µM

Which results are given for CCCCc1ccc(CCCCCCCCCC(N)CO)cc1 (centres undefined)?
MIC [1]: 8 µM (≈ 2.56 µg/mL); Ratio [2]: 45; CC50 at 48 h [3]: 25.4 µM; CC50 at 48 h [4]: 11.7 µM; CC50 at 48 h [6]: 45.6 µM

Which results are given for CCCCCCCCCCCCCCCCCC(CO)NCC (centres undefined)?
MIC [1]: 16 µM (≈ 5.24 µg/mL); Ratio [2]: 23; CC50 at 48 h [3]: 23.6 µM; CC50 at 48 h [4]: 135 µM; CC50 at 48 h [6]: 192 µM; MIC [5]: 64 µM (≈ 21 µg/mL); MIC (Staphylococcus aureus): 32 µM (≈ 10.5 µg/mL); MIC (Klebsiella pneumoniae): 512 µM (≈ 168 µg/mL)
